The subject of this test is HEK293T cells carrying the ATF4 luciferase reporter. Kind of test: ATF4-Luc assay, in vitro model of Vanishing Cell White Matter Disease (VWMD). It is filed as cell-based. Conditions: Homo sapiens, HEK-293T, 1 μg/mL tunicamycin, 7 hours, One Glo luminescence. Summed up: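 Stable HEK293T line with human ATF4 5′-UTR–firefly luciferase reporter treated with 1 μg/mL tunicamycin plus 200 nM compound for 7 h. Luminescence read; EC50 derived.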
As to `O=C(COc1ccc(F)c(F)c1)NC12CC(NC(=O)c3ccc(CCC4CC4)cn3)(C1)C2` [Compound 291, 5-(2-cyclopropylethyl)-N-{3-[2-(3,4-difluorophenoxy)acetamido]bicyclo[1.1.1]pentan-1-yl}pyridine-2-carboxamide], the EC50 lay within 50 to 250 nM.

For `COc1ccccc1-c1cc(C(=O)NC23CCC(NC(=O)COc4ccc(Cl)c(F)c4)(CC2)C(O)C3)on1` (stereo not shown) [Compound 397, N-{4-[2-(4-chloro-3-fluorophenoxy)acetamido]-3-hydroxybicyclo[2.2.2]octan-1-yl}-3-(2-methoxyphenyl)-1,2-oxazole-5-carboxamide], the EC50 lay in the range of 50 to 250 nM.

On to `CCCn1ccc(C(=O)NC23CC(NC(=O)COc4ccc(Cl)c(F)c4)(C2)C3)n1` [Compound 343, N-{3-[2-(4-chloro-3-fluorophenoxy)acetamido]bicyclo[1.1.1]pentan-1-yl}-1-propyl-1H-pyrazole-3-carboxamide], for which the 50% effective concentration (EC50) was 50 to 250 nM.

For `Cc1nn(C)c2c(NC34CC(NC(=O)COc5ccc(Cl)c(F)c5)(C3)C4)ncnc12` [Compound 426, 2-(4-chloro-3-fluorophenoxy)-N-{3-[(1,3-dimethyl-1H-pyrazolo[4,3-d]pyrimidin-7-yl)amino]bicyclo[1.1.1]pentan-1-yl}acetamide], the EC50 is more than 2000 nM.

As to `CCc1ncc(C(=O)NC23CC(NC(=O)COc4ccc(Cl)c(Cl)c4)(C2)C3)o1` [Compound 674, N-{3-[2-(3,4-dichlorophenoxy)acetamido]bicyclo[1.1.1]pentan-1-yl}-2-ethyl-1,3-oxazole-5-carboxamide], the EC50 was less than 50 nM.

In the case of `COc1cc(C(=O)NC23CC(NC(=O)COc4ccc(Cl)c(F)c4)(C2)C3)ccc1F` [Compound 531, N-{3-[2-(4-chloro-3-fluorophenoxy)acetamido]bicyclo[1.1.1]pentan-1-yl}-4-fluoro-3-methoxybenzamide], the EC50 was in the range of 1000 to 2000 nM.

For `Cn1cc(-c2ccnc(NC34CC(NC(=O)COc5ccc(Cl)c(F)c5)(C3)C4)n2)cn1` [Compound 381, 2-(4-chloro-3-fluorophenoxy)-N-(3-{[4-(1-methyl-1H-pyrazol-4-yl)pyrimidin-2-yl]amino}bicyclo[1.1.1]pentan-1-yl)acetamide], the EC50 was 1000 to 2000 nM.

Take `CCOC(=O)c1cc(C(=O)NC23CC(NC(=O)COc4ccc(Cl)c(F)c4)(C2)C3)ccn1` [Compound 279, ethyl 4-({3-[2-(4-chloro-3-fluorophenoxy)acetamido]bicyclo[1.1.1]pentan-1-yl}carbamoyl)pyridine-2-carboxylate]: the EC50 lay within 250 to 1000 nM.

`O=C(COc1ccc(Cl)c(F)c1)NC12CCC(NC(=O)c3cc(-c4c(F)cccc4F)no3)(CC1)CC2O` (stereo not shown) [Compound 409, N-{4-[2-(4-chloro-3-fluorophenoxy)acetamido]-3-hydroxybicyclo[2.2.2]octan-1-yl}-3-(2,6-difluorophenyl)-1,2-oxazole-5-carboxamide]: the EC50 is 50 to 250 nM.

For `Cc1cc(C(=O)NC23CC(NC(=O)COc4ccc(Cl)c(F)c4)(C2)C3)n(C(F)F)n1` [Compound 913, N-{3-[2-(4-chloro-3-fluorophenoxy)acetamido]bicyclo[1.1.1]pentan-1-yl}-1-(difluoromethyl)-3-methyl-1H-pyrazole-5-carboxamide], the EC50 is 250 to 1000 nM.

`O=C(COc1ccc(Cl)c(F)c1)NC12CC(NC(=O)c3cc4nccnc4s3)(C1)C2` [Compound 886, N-{3-[2-(4-chloro-3-fluorophenoxy)acetamido]bicyclo[1.1.1]pentan-1-yl}thieno[2,3-b]pyrazine-6-carboxamide]: the EC50 was 250 to 1000 nM.

Regarding `O=C(COc1ccc(Cl)c(F)c1)NC12CCC(NC(=O)c3cc(Cl)no3)(CC1)CC2O` (stereo not shown) [Compound 414, 3-chloro-N-{4-[2-(4-chloro-3-fluorophenoxy)acetamido]-3-hydroxybicyclo[2.2.2]octan-1-yl}-1,2-oxazole-5-carboxamide], the EC50 lay in the range of 50 to 250 nM.

In the case of `Cc1nc(C(=O)NC23CCC(NC(=O)COc4ccc(Cl)c(F)c4)(CC2)[C@@H](O)C3)cs1` [Compound 572, N-{(3S)-4-[2-(4-chloro-3-fluorophenoxy)acetamido]-3-hydroxybicyclo[2.2.2]octan-1-yl}-2-methyl-1,3-thiazole-4-carboxamide], the concentration for a half-maximal effect (EC50) lay within 50 to 250 nM.

With `O=C(COc1ccc(Cl)c(F)c1)NC12CC(NC(=O)c3cc(C(F)(F)F)ccn3)(C1)C2` [Compound 176, N-{3-[2-(4-chloro-3-fluorophenoxy)acetamido]bicyclo[1.1.1]pentan-1-yl}-4-(trifluoromethyl)pyridine-2-carboxamide], the EC50 is 50 to 250 nM.

In the case of `N#CCCc1ccc(C(=O)NC23CCC(NC(=O)COc4ccc(Cl)c(F)c4)(C2)C3)nc1` [Compound 336, N-{4-[2-(4-chloro-3-fluorophenoxy)acetamido]bicyclo[2.1.1]hexan-1-yl}-5-(2-cyanoethyl)pyridine-2-carboxamide], the EC50 was more than 2000 nM.

On to `O=C(COc1ccc(Cl)c(F)c1)NC12CCC(NC(=O)c3ccsn3)(CC1)C[C@@H]2O` [Compound 695, N-{(3S)-4-[2-(4-chloro-3-fluorophenoxy)acetamido]-3-hydroxybicyclo[2.2.2]octan-1-yl}-1,2-thiazole-3-carboxamide], for which the EC50 is less than 50 nM.

For the compound `O=C(COc1ccc(Cl)c(F)c1)NC12CCC(NC(=O)c3cc4ccccn4n3)(CC1)CC2O` (stereo not shown) [Compound 594, N-{4-[2-(4-chloro-3-fluorophenoxy)acetamido]-3-hydroxybicyclo[2.2.2]octan-1-yl}pyrazolo[1,5-a]pyridine-2-carboxamide], the EC50 fell in the range of 50 to 250 nM.

`Cc1cccc(C(=O)NC23CCC(NC(=O)COc4ccc(Cl)c(F)c4)(CC2)C(O)C3)n1` (stereo not shown) [Compound 914, N-{4-[2-(4-chloro-3-fluorophenoxy)acetamido]-3-hydroxybicyclo[2.2.2]octan-1-yl}-6-methylpyridine-2-carboxamide]: the EC50 lay within 50 to 250 nM.

As to `O=C(COc1ccc(Cl)c(F)c1)NC12CC(NC(=O)c3ccsc3)(C1)C2` [Compound 306, N-{3-[2-(4-chloro-3-fluorophenoxy)acetamido]bicyclo[1.1.1]pentan-1-yl}thiophene-3-carboxamide], the half-maximal effective concentration (EC50) was in the range of 250 to 1000 nM.

Turning to `Cc1occc1C(=O)NC12CC(NC(=O)COc3ccc(Cl)c(F)c3)(C1)C2` [Compound 556, N-{3-[2-(4-chloro-3-fluorophenoxy)acetamido]bicyclo[1.1.1]pentan-1-yl}-2-methylfuran-3-carboxamide], the concentration giving a half-maximal response (EC50) is 1000 to 2000 nM.

Consider `O=C(COc1ccc(Cl)c(F)c1)NC12CC(NC(=O)c3coc(C4CC4)n3)(C1)C2` [Compound 248, N-{3-[2-(4-chloro-3-fluorophenoxy)acetamido]bicyclo[1.1.1]pentan-1-yl}-2-cyclopropyl-1,3-oxazole-4-carboxamide], for which the 50% effective concentration (EC50) was in the range of 50 to 250 nM.

`O=C(COc1ccc(Cl)c(F)c1)NC12CC(NC(=O)c3cc4ccccc4o3)(C1)C2` [Compound 317, N-{3-[2-(4-chloro-3-fluorophenoxy)acetamido]bicyclo[1.1.1]pentan-1-yl}-1-benzofuran-2-carboxamide]: the half-maximal effective concentration (EC50) is less than 50 nM.

Take `O=C(COc1ccc(Cl)c(F)c1)NC12CCC(NC(=O)c3cnc4ccccn34)(CC1)CC2O` (stereo not shown) [Compound 595, N-{4-[2-(4-chloro-3-fluorophenoxy)acetamido]-3-hydroxybicyclo[2.2.2]octan-1-yl}imidazo[1,2-a]pyridine-3-carboxamide]: the EC50 is 1000 to 2000 nM.

With `O=C(COc1ccc(Cl)c(F)c1)NC12CCC(NC(=O)c3cn[nH]c3)(CC1)C(O)C2` (stereo not shown) [Compound 214, N-{4-[2-(4-chloro-3-fluorophenoxy)acetamido]-2-hydroxybicyclo[2.2.2]octan-1-yl}-1H-pyrazole-4-carboxamide], the EC50 was more than 2000 nM.

`CCc1ccnc(C(=O)NC23CCC(NC(=O)COc4ccc(Cl)c(F)c4)(CC2)C(O)C3)c1` (stereo not shown) [Compound 918, N-{4-[2-(4-chloro-3-fluorophenoxy)acetamido]-3-hydroxybicyclo[2.2.2]octan-1-yl}-4-ethylpyridine-2-carboxamide]: the concentration giving a half-maximal response (EC50) was 250 to 1000 nM.

For `O=C(COc1ccc(Cl)c(F)c1)NC12CC(NC(=O)c3ccc(C4=CCOCC4)nc3)(C1)C2` [Compound 155, N-{3-[2-(4-chloro-3-fluorophenoxy)acetamido]bicyclo[1.1.1]pentan-1-yl}-6-(3,6-dihydro-2H-pyran-4-yl)pyridine-3-carboxamide], the EC50 lay in the range of 1000 to 2000 nM.

For `O=C(COc1ccc(Cl)c(F)c1)NC12CC(Nc3nccn4nccc34)(C1)C2` [Compound 722, 2-(4-chloro-3-fluorophenoxy)-N-{3-[(pyrazolo[1,5-a]pyrazin-4-yl)amino]bicyclo[1.1.1]pentan-1-yl}acetamide], the EC50 lay in the range of 50 to 250 nM.

Consider `O=C(COc1ccc(Cl)c(F)c1)NC12CC(NC(=O)c3cccc4c3OCO4)(C1)C2` [Compound 240, N-{3-[2-(4-chloro-3-fluorophenoxy)acetamido]bicyclo[1.1.1]pentan-1-yl}-2H-1,3-benzodioxole-4-carboxamide], for which the EC50 is 1000 to 2000 nM.

The values above are taken from patent publication US10913727B2, “Modulators of the integrated stress pathway” (Calico Life Sciences LLC, priority 2016, dated 2021).
